Series [1] has as its target T1, CtGK (Thermochaetoides thermophila, UniProt G0SAG9).
T1 construct: gene CTHT_0042250; residues 67-590 (models start at residue 65), N-terminal His-tag cut by TEV, codon-optimized gene, E. coli BL21(DE3), dimer
T1 sequence (G0SAG9 67-590): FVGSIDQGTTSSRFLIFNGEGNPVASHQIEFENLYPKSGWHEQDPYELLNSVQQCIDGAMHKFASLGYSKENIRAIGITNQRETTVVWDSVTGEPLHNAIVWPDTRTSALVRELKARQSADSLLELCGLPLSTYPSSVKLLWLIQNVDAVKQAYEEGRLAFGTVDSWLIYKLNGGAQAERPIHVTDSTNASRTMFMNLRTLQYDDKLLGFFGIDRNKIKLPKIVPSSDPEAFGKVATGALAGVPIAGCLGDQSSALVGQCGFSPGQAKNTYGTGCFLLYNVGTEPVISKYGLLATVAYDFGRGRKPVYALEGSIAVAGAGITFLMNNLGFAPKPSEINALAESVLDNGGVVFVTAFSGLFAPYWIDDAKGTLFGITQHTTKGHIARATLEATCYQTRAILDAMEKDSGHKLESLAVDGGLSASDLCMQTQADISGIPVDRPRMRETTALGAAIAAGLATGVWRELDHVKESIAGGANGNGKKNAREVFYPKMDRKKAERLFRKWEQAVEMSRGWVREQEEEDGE
Kind of series: X-ray crystal structure (glycerol soak). Particulars: 20-25% glycerol as cryoprotectant; 0.2 M CaCl2, PEG 3350; active site in N-terminal domain. The class given is binding.

In series [2] the target is T1, CtGK. Kind of series: thermal shift assay, Sypro Orange. The series is classed as binding. Particulars: 50 mM Tris, 200 mM NaCl, pH 8.0.
Substrate in the series “purified protein”: Nc1ncnc2c1ncn2[C@@H]1O[C@H](COP(=O)(O)OP(=O)(O)OP(=O)(O)O)[C@@H](O)[C@H]1O
Description: purified protein. The series is classed as biochemical, Thermochaetoides thermophila. Particulars: 1 mM glycerol, 5 mM MgCl2, 50 mM KCl, 250 mM sucrose, 20 mM Tris-HCl pH 7.4, 37 °C, substrate inhibition at high ATP.

Series [3] deals with the molecule itself. Kind of series: SEC-MALS; XBridge BEH200 7.8 x 300 column, 50 mM Tris pH 7.8, 200 mM NaCl, 1 mL/min.

The text below walks through data of article PMC7765489, “Structural Characterization of Glycerol Kinase from the Thermophilic Fungus Chaetomium thermophilum” (International Journal of Molecular Sciences, 2020).

A word on the Tm: it is the temperature at the midpoint of the melting transition. Broadly, the Km is the concentration of substrate that gives half-maximal velocity. What is called stoichiometry N is a count of units in the complex or per binding partner.

For the molecule `OCC(O)CO` [glycerol], the “X-ray crystal structure (glycerol soak)” value on CtGK [1] is reported as “we were able to solve the enzyme-substrate complex with a clear electron density”. For the same molecule, the Tm at CtGK [2] (5% glycerol, no nucleotide) came to 53.88 ± 0.48 °C. As for `Nc1ncnc2c1ncn2[C@@H]1O[C@H](COP(=O)(O)OP(=O)(O)OP(=O)(O)O)[C@@H](O)[C@H]1O` [ATP], at CtGK [2] (0.5 mM ATP, no glycerol), the Tm was 54.5 ± 0.00 °C. For the molecule `Nc1ncnc2c1ncn2[C@@H]1O[C@H](COP(=O)(O)OP(=O)(O)O)[C@@H](O)[C@H]1O` [ADP], on CtGK [2] (0.5 mM ADP, no glycerol), the Tm came to 55.0 ± 1.11 °C.

For `O=P(O)(O)OC[C@H]1OC(O)(COP(=O)(O)O)[C@@H](O)[C@@H]1O` (stereo partly shown) [fructose-1,6-bisphosphate], at CtGK [2] (0.5 mM FBP, with GOL and ATP, site unidentified), the Tm entry is “FBP prevents the protein destabilization by GOL and ATP (Figure S1B)”.

B1: glycerol kinase from Chaetomium thermophilum (enzyme, UniProt G0SAG9 67-590, looked up)
chain: FVGSIDQGTTSSRFLIFNGEGNPVASHQIEFENLYPKSGWHEQDPYELLNSVQQCIDGAMHKFASLGYSKENIRAIGITNQRETTVVWDSVTGEPLHNAIVWPDTRTSALVRELKARQSADSLLELCGLPLSTYPSSVKLLWLIQNVDAVKQAYEEGRLAFGTVDSWLIYKLNGGAQAERPIHVTDSTNASRTMFMNLRTLQYDDKLLGFFGIDRNKIKLPKIVPSSDPEAFGKVATGALAGVPIAGCLGDQSSALVGQCGFSPGQAKNTYGTGCFLLYNVGTEPVISKYGLLATVAYDFGRGRKPVYALEGSIAVAGAGITFLMNNLGFAPKPSEINALAESVLDNGGVVFVTAFSGLFAPYWIDDAKGTLFGITQHTTKGHIARATLEATCYQTRAILDAMEKDSGHKLESLAVDGGLSASDLCMQTQADISGIPVDRPRMRETTALGAAIAAGLATGVWRELDHVKESIAGGANGNGKKNAREVFYPKMDRKKAERLFRKWEQAVEMSRGWVREQEEEDGE
notes: glycerol kinase, Chaetomium thermophilum, UniProt G0SAG9, residues 67-590; codon-optimised synthetic gene in pET24d with N-terminal His-Tag and TEV site; The crystal models begin at residue 65 (67 for chain B) although the construct is stated as 67-590; also called CtGK; GK; source: E. coli BL21 (DE3), purified (Ni-Sepharose, TEV cleavage, second Ni-Sepharose, gel filtration on Superdex 75); not …
B1: the Km in “purified protein” was found to be 52 ± 9 µM. In series [3], the “stoichiometry N” value was found to be 2.
